Results: patent EP4745134A1 (Jiangsu Yahong Meditech Co., Ltd., priority 2023, dated 2025)

Target: PRMT5-MTA (Homo sapiens, UniProt O14744)
Assay: Enzymatic inhibitory activity against PRMT5-MTA (AlphaScreen)
Format: biochemical
Conditions: not given
Experimental: The AlphaScreen method was used to detect the enzymatic inhibitory activity of the compounds against PRMT5-MTA. 1 x Methyltransferase assay buffer IV (signalchem) was prepared as a solution for diluting each component for the enzymatic reaction. PRMT5/[…] protein of a final concentration of 1 nM, […] (sigma) of a final concentration of 1 uM and S-(5'-adenosine)-L-methionine chloride dihydrochloride (sigma) of a final concentration of 2.5 uM were mixed, then incubated for 30 minutes at room temperature, and transferred to an OptiPlate-384 well plate (PerkinElmer) at a volume of 6 uL per well, for which no PRMT5/[…] protein was added to the control wells. The test compound was 3-fold serially diluted into 10 concentrations, starting from a concentration of 1000 nM, and the series of diluted compounds were added to all wells except the control wells in the well plate using Tecan D300e. The well plate was subjected to centrifugation for 1 minute at 1000 rpm in a centrifuge, and then incubated for 15 minutes at 23°C. Histone H4 substrate of a final concentration of 5 nM was added to the well plate at 4 uL per well, centrifuged for 1 minute at 1000 rpm in a centrifuge, then placed in an incubator at 23°C and reacted for 45 minutes. Anti-histone H4 (symmetrical dimethyl R3) antibody (Abcam) was incubated with 50 ug/mL of AlphaScreen Protein A Acceptor beads (PerkinElmer) for 10 minutes at room temperature beforehand, and then added to the well plate at a volume of 10 uL per well. The mixture was reacted for 1 hour at room temperature. 50 Ug/mL of AlphaScreen Streptavidin Donor beads (PerkinElmer) was added at 10 uL per well, and reacted for 1 hour at room temperature. The signal values were detected for the well plate through the Alpha method using an Envision multifunctional microplate-reader, and the IC50 values for inhibition of the compounds on PRMT5/MET50 enzyme activity were calculated in Xlfit 5.0 software. Table 1. IC50 values for inhibition of the compounds on PRMT5+MTA enzyme activity

Chain of PRMT5-MTA (O14744 whole entry): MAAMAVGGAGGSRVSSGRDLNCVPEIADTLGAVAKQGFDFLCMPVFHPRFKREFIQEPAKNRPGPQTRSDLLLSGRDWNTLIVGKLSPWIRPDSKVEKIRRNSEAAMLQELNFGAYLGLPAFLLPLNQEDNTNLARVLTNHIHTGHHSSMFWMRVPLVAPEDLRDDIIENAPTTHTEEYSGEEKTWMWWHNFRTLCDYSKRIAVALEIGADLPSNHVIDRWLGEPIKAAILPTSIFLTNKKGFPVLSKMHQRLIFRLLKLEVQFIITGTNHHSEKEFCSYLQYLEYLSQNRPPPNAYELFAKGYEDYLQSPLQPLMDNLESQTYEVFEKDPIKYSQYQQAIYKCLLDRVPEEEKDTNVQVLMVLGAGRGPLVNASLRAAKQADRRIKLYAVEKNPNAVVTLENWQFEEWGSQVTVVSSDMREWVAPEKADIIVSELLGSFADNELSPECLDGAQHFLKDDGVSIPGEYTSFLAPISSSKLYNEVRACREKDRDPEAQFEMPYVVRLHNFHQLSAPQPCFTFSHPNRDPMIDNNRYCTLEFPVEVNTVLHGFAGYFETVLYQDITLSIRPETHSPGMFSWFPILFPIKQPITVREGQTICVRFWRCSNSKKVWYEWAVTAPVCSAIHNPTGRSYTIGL
Chain of PRMT5-MTA (Q9BQA1 whole entry partner): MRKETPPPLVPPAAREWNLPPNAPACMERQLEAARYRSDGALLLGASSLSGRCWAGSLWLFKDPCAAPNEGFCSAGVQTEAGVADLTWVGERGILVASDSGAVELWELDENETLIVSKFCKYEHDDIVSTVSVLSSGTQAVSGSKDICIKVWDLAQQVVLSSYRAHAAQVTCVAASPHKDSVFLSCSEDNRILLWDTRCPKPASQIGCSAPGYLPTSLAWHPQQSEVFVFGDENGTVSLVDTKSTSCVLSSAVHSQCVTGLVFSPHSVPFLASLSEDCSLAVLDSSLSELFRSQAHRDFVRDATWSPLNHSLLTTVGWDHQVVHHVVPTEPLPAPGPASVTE

Row | SMILES | IC50 [nM]
1 | Cc1cc2nc(N)c3cnn(C)c3c2cc1C(=O)N(C)N1c2ccccc2CC1C (stereo not shown) [Example 280] | 4

Same assay, conditions: read-out: IC50

Row | SMILES | IC50 [nM]
2 | Cc1cc2nc(N)c3c(cnn3C)c2cc1C(=O)N(Cc1ccc(C(F)(F)F)cn1)N(C)c1ncccn1 [Example 81, 4-amino-N',3,7-trimethyl-N'-(pyrimidin-2-yl)-N-((5-(trifluoromethyl)pyridin-2-yl)methyl)-3H-pyrazolo[3,4-c]quinoline-8-carbohydrazide] | 5.8
3 | Cc1cc2cc(C(=O)N(Cc3ncc(Br)cn3)N(C)c3ncccc3F)ccc2nc1N [Example 89, 2-amino-N-((5-bromopyrimidin-2-yl)methyl)-N'-(3-fluoropyridin-2-yl)-N',3-dimet hylquinoline-6-carbohydrazide] | 2
4 | Cc1cc2cc(C(=O)N(Cc3ccc(C(F)(F)F)cn3)N(C)c3ncc(S(C)(=O)=O)cn3)ccc2nc1N [Example 96, 2-amino-N',3-dimethyl-N'-(5-(methylsulfonyl)pyrimidin-2-yl)-N-((5-(trifluoromethyl)pyridin-2-yl)methyl)quinoline-6-carbohydrazide] | 2.6
5 | Cc1cc2cc(C(=O)N(Cc3ccc(C(F)(F)F)cn3)N(CC(F)(F)F)c3ncccn3)ccc2nc1N [Example 98, 2-amino-3-methyl-N'-(pyrimidin-2-yl)-N' -(2,2,2-trifluoroethyl)-N-((5-(trifluoromethyl)pyridin-2-yl)methyl)quinoline-6-carbohydrazide] | 17.2
6 | Cc1cc2cc(C(=O)N(Cc3cccc(C(F)(F)F)n3)N(C)c3ncccn3)ccc2nc1N [Example 103, 2-amino-N',3-dimethyl-N'-(pyrimidin-2-yl)-N-((6-(trifluoromethyl)pyridin-2-yl)methyl)quinoline-6-carbohydrazide] | 2.9
7 | Cc1cc2cc(C(=O)N(Cc3ccc(C(F)(F)F)cn3)N(C)c3ncccc3Br)ccc2nc1N [Example 106, 2-amino-N'-(3-bromopyridin-2-yl)-N',3-d imethyl-N-((5-(trifluoromethyl)pyridin-2-yl)methyl)quinoline-6-carbohydrazide] | 1.9
8 | CCN(C(=O)c1ccc2nc(N)c3c(c2c1)COC3)N(C)c1ccc(C(F)(F)F)cc1 [Example 115, 4-amino-N-ethyl-N-methyl-N-(4-(trifluoromethyl)phenyl)-1,3-dihydrofuro[3,4-c]quinoline-8-carbohydrazide] | 2
9 | Cc1cc2cc(C(=O)N(Cc3ccc(C(F)(F)F)cn3)n3c(=O)n(C)c4cccnc43)ccc2nc1N [Example 118, 2-amino-3-methyl-N-(1-methyl-2-oxo-1,2-dihydro-3H-imidazo[4,5-b]pyridin-3-yl)-N-((5-(trifluoromethyl)pyridin-2-yl)methyl)quinoline-6-carboxamide] | 2.3
10 | CCc1cccnc1N(C)N(Cc1ccc(C(F)(F)F)cn1)C(=O)c1ccc2nc(N)c(C)cc2c1 [Example 134, 2-amino-N'-(3-ethylpyridin-2-yl)-N',3-dimethyl-N-((5-(trifluoromethyl)pyridin-2-yl)methyl)quinoline-6-carbohydrazide] | 2.3
11 | Cc1cc2cc(C(=O)N(Cc3ccc(C(F)(F)F)cn3)N(C)c3ncccc3C(C)C)ccc2nc1N [Example 136, 2-amino-N'-(3-isopropylpyridin-2-yl)-N', 3-dimethyl-N-((5-(trifluoromethyl)pyridin-2-yl)methyl)quinoline-6-carbohydrazide] | 3.6
12 | Cc1cc2cc(C(=O)N(Cc3ccc(-c4scnc4C)cn3)N(c3nccc4nccnc34)C3CC3)ccc2nc1N [Example 165, 2-amino-N'-cyclopropyl-3-methyl-N-((5-(4-methylthiazol-5-yl)pyridin-2-yl)methy 1)-N'-(pyrido[3,4-b]pyrazin-5-yl)quinoline-6-carbohydrazide] | 3.3
13 | Cc1cc2cc(C(=O)N(Cc3ccc(C4CC4)cc3F)N(C)c3nccc4nccnc34)ccc2nc1N [Example 167, 2-amino-N-(4-cyclopropyl-2-fluorobenzy 1)-N',3-dimethyl-N'-(pyrido[3,4-b]pyrazin-5-yl)quinoline-6-carbohydrazide] | 1.3
14 | Cc1cc2cc(C(=O)N(Cc3ccc(-c4nn[nH]n4)cn3)N(C)c3ncccn3)ccc2nc1N [Example 245, N-((5-(2H-tetrazol-5-yl)pyridin-2-yl)methyl)-2-amino-N',3-dimethyl-N'-(pyrimidin-2-y 1)quinoline-6-carbohydrazide] | 9.5
15 | Cc1cc2cc(C(=O)N(Cc3ccc(-c4cnn(C(F)(F)F)c4)cn3)Nc3ncccn3)ccc2nc1N [Example 249, 2-amino-3-methyl-N'-(pyrimidin-2-yl)-N-((5-(1-(trifluoromethyl)-1H-pyrazol-4-yl)pyridin-2-yl)methyl)quinoline-6-carbohy drazide] | 40
16 | Cc1cc2nc(N)c3cnn(C)c3c2cc1C(=O)N(Cc1ccc(-c2scnc2C)cn1)N(c1ncccn1)C1CC1 [Example 251, 4-amino-N'-cyclopropyl-1,7-dimethyl-N-((5-(4-methylthiazol-5-yl)pyridin-2-yl)methyl)-N'-(pyrimidin-2-yl)-1H-pyrazolo[4 ,3-c]quinoline-8-carbohydrazide] | 4.1
17 | Cc1ncsc1-c1ccc(CN(C(=O)c2ccc3nc(N)c4cnn(C)c4c3c2)N(c2ncccn2)C2CC2)nc1 [Example 252, 4-amino-N'-cyclopropyl-1-methyl-N-((5-(4-methylthiazol-5-yl)pyridin-2-yl)methyl)-N'-(pyrimidin-2-yl)-1H-pyrazolo[4,3-c] quinoline-8-carbohydrazide] | 4.8
18 | Cc1ncsc1-c1ccc(CN(C(=O)c2cc3c(cc2F)nc(N)c2cnn(C)c23)N(c2ncccn2)C2CC2)nc1 [Example 253, 4-amino-N'-cyclopropyl-7-fluoro-1-methyl-N-((5-(4-methylthiazol-5-yl)pyridin-2-yl)methyl)-N'-(pyrimidin-2-yl)-1H-pyraz olo[4,3-c]quinoline-8-carbohydrazide] | 6.1
19 | Cc1cc2cc(C(=O)N(Cc3ccc(C4=CCNCC4)cn3)N(C)c3ncccn3)ccc2nc1N [Example 262, 2-amino-N',3-dimethyl-N'-(pyrimidin-2-yl)-N-((1',2',3',6'-tetrahydro-[3,4'-bipyridine]-6-yl)methyl)quinoline-6-carbohydrazide] | 8.6
20 | Cc1cc2cc(C(=O)N(Cc3ccc(C(F)(F)F)cn3)N(C)c3ncc(I)cn3)ccc2nc1N [Example 267, 2-amino-N'-(5-iodopyrimidin-2-yl)-N',3-dimethyl-N-((5-(trifluoromethyl)pyridin-2-yl)methyl)quinoline-6-carbohydrazide] | 1.8
21 | Cc1cc2nc(N)c3cnn(C)c3c2cc1C(=O)N(C)N1CCCc2cccnc21 [Example 268, 4-amino-N-(3,4-dihydro-1,8-naphthyridin-1(2H)-yl)-N,1,7-trimethyl-1H-pyrazolo[4,3-c]quinoline-8-carboxamide] | 3.5
22 | Cc1cc2cc(C(=O)N(Cc3ccc(C(F)(F)F)cn3)N(c3ncccn3)C3CC3)c(F)cc2nc1N [Example 269, 2-amino-N'-cyclopropyl-7-fluoro-3-methyl-N'-(pyrimidin-2-yl)-N-((5-(trifluoromethyl)pyridin-2-yl)methyl)quinoline-6-car bohydrazide] | 5.7
23 | Cc1cc2cc(C(=O)N(Cc3ccc(C(F)(F)F)cn3)N(C)c3nccc4cnn(C)c34)ccc2nc1N [Example 275, 2-amino-N',3-dimethyl-N'-(1-methyl-1H-pyrazolo[3,4-c]pyridin-7-yl)-N-((5-(trifluoromethyl)pyridin-2-yl)methyl)quinoline-6-carbohydrazide] | 2.9
24 | Cc1cc2cc(C(=O)N(Cc3cnc(Br)cn3)N(C)c3ncccn3)ccc2nc1N [Example 282, 2-amino-N-((5-bromopyrazin-2-yl)methyl)-N',3-dimethyl-N'-(pyrimidin-2-yl)quinoline-6-carbohydrazide] | 4.5
25 | Cc1cc2cc(C(=O)N(Cc3ccc(C4(O)COC4)cn3)N(C)c3ncccn3)ccc2nc1N [Example 285, 2-amino-N-((5-(3-hydroxyoxetan-3-yl)pyridin-2-yl)methyl)-N',3-dimethyl-N'-(pyrimidin-2-yl)quinoline-6-carbohydrazide] | 2
26 | Cc1cc2cc(C(=O)N(Cc3ccc(C(C)(C)O)cn3)N(C)c3ncccn3)ccc2nc1N [Example 290, 2-amino-N-((5-(2-hydroxyprop-2-yl)pyridin-2-yl)methyl)-N',3-dimethyl-N'-(pyrimidin-2-yl)quinoline-6-carbohydrazide] | 3.7
27 | Cc1cc2cc(C(=O)N(Cc3ccc(C(F)(F)F)cn3)N(C)c3ncc(P(C)(C)=O)cn3)ccc2nc1N [Example 296, 2-amino-N'-(5-(dimethylphosphoryl)pyrimidin-2-yl)-N',3-dimethyl-N-((5-(trifluoromethyl)pyridin-2-yl)methyl)quinoline-6-carbohydrazide] | 1.3
28 | Cc1cc2cc(C(=O)N(Cc3ccc(P(C)(C)=O)cn3)N(C)c3ncccn3)ccc2nc1N [Example 297, 2-amino-N-((5-(dimethylphosphoryl)pyridin-2-yl)methyl)-N',3-dimethyl-N'-(pyrimidin-2-yl)quinoline-6-carbohydrazide] | 6.4
